Measured values as given in patent US7138361B2, “Herbicidal heterocycles” (E. I. du Pont de Nemours and Company, priority 2000, dated 2006).

What was measured:
Format in all cases: in vivo
[1] = tested on: woolly cupgrass (Eriochloa villosa); assay: Test C preemergence; settings: for Plant response rating (0 to 100), Cupgrass, Woolly: Rate 500 g/ha, visual evaluation after 12 to 14 days
Outline: (§1)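 Response scores (0 no effect to 100 complete control) came from visual comparison with untreated controls 12 to 14 days after treatment. Preemergence application was made to seeded soil; postemergence, to plants at the 1- to 4-leaf stage.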

Sunflower [2] = assay: Test C preemergence; settings: Rate 125 g/ha; scale 0 to 100, 0 no effect, 100 complete control
[3] = tested on: velvetleaf (Abutilon theophrasti); assay: Test C preemergence; settings: for Plant response rating (0 to 100), Velvetleaf: Rate 500 g/ha, visual evaluation after 12 to 14 days
Outline: as §1

[4] = tested on: pigweed (Amaranthus retroflexus); assay: Test C preemergence; settings: for Plant response rating (0 to 100), Pigweed: Rate 500 g/ha, visual evaluation after 12 to 14 days
Outline: as §1

[5] = tested on: barnyardgrass (Echinochloa crus-galli); assay: Test C flooded paddy test; settings: for Barnyardgrass plant response rating: Flooded Paddy, scale 0 to 100, 0 no effect, 100 complete control; for Plant response rating, Barnyardgrass: flooded paddy test, scale 0 to 100 (0 no effect, 100 complete control)
Outline: (§2)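 Visually assessed vs untreated controls 12–14 d post-treatment (greenhouse). Flooded paddy plants were at the 2-leaf stage; scale 0 = no effect, 100 = complete control.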

[6] = tested on: smallflower flatsedge (Cyperus difformis); assay: Test C flooded paddy test; settings: for Flatsedge plant response rating: Flooded Paddy, scale 0 to 100, 0 no effect, 100 complete control; for Plant response rating, Flatsedge: flooded paddy test, scale 0 to 100 (0 no effect, 100 complete control)
Outline: as §2

[7] = tested on: duck salad (Heteranthera limosa); assay: Test C flooded paddy test; settings: for Ducksalad plant response rating: Flooded Paddy, scale 0 to 100, 0 no effect, 100 complete control; for Plant response rating, Ducksalad: flooded paddy test, scale 0 to 100 (0 no effect, 100 complete control)
Outline: as §2

rice (Oryza saliva) [8] = assay: Test C flooded paddy test; settings: for Rice plant response rating: Flooded Paddy, scale 0 to 100, 0 no effect, 100 complete control; for Plant response rating, Rice: flooded paddy test, scale 0 to 100 (0 no effect, 100 complete control)
Outline: as §2

Nightshade = assay: Test C preemergence; settings: Rate 500 g/ha, visual evaluation after 12 to 14 days
Sunflower [9] = assay: Test C preemergence; settings: Rate 500 g/ha, visual evaluation after 12 to 14 days
Sunflower [10] = assay: Test C preemergence; settings: Rate 62 g/ha, scale 0 to 100
corn (Zea mays) = assay: Test B preemergence
Outline: (§3)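 Visual injury scores, 0 = no effect to 100 = complete control, assigned against controls after 13 to 15 days in the greenhouse. Compounds formulated in non-phytotoxic solvent plus surfactant and applied to soil after planting (pre) or onto foliage of 1- to 4-leaf plants (post).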

[11] = tested on: lambsquarters (Chenopodium album); assay: Test B preemergence
Outline: as §3

[12] = tested on: barnyardgrass (Echinochloa crus-galli); assay: Test B preemergence
Outline: as §3

[13] = tested on: giant foxtail (Setaria faberii); assay: Test B preemergence
Outline: as §3

[14] = tested on: cocklebur (Xanthium strumarium); assay: Test B preemergence
Outline: as §3

[15] = tested on: velvetleaf (Abutilon theophrasti); assay: Test B preemergence
Outline: as §3

[16] = tested on: morning glory (Ipomoea hederacea); assay: Test B preemergence
Outline: as §3

[17] = tested on: crabgrass (Digitaria sanguinalis); assay: Test B preemergence
Outline: as §3

[18] = tested on: pigweed (Amaranthus retroflexus); assay: Test B preemergence
Outline: as §3

rice (Oryza saliva) [19] = assay: Test B preemergence
Outline: as §3

[20] = tested on: Surinam grass (Brachiaria decumbens); assay: Test B preemergence
Outline: as §3

[21] = Rate 125 g/ha, scale 0 to 100, 0 no effect, 100 complete control
[22] = preemergence, Rate 62 g/ha, scale 0 to 100
[23] = preemergence, Rate 250 g/ha, scale 0 to 100, 0 no effect, 100 complete control
[24] = Preemergence, Rate 500 g/ha, scale 0 to 100, 0 no effect, 100 complete control
[25] = preemergence, Rate 125 g/ha, scale of 0 to 100 where 0 is no effect and 100 is complete control, 13 to 15 days

In the case of `COc1cc(N2CCC(n3ccc(C(C)(C)C)n3)C2=O)ccc1Cl` (stereo not shown) [Compound 117], the “Plant response rating, Cupgrass, Woolly” value [1, 21] is reported as 100, the “Plant response rating, Cupgrass, Woolly” value [1, 22] is reported as 80 and the “Plant response rating (0 to 100), Cupgrass, Woolly” value ([1]; preemergence) is reported as 100. For the same molecule, the “Plant response rating, Cupgrass, Woolly” value [1, 23] was 100, the “Plant response rating, Sunflower” value (Sunflower [2]) was 40 and the “Plant response rating, Velvetleaf” value [3, 21] was 90. For the same molecule, the “Plant response rating, Velvetleaf” value [3, 22] was 80, the “Plant response rating (0 to 100), Velvetleaf” value ([3]; preemergence) was 100 and the “Plant response rating, Velvetleaf” value [3, 23] was 100. The “Plant response rating, Pigweed” value [4, 21] was 100, the “Plant response rating, Pigweed” value [4, 22] was 100 and the “Plant response rating (0 to 100), Pigweed” value ([4]; preemergence) was 30. For the same molecule, the “Plant response rating, Pigweed” value [4, 23] was 100, the “Barnyardgrass plant response rating” value ([5]; Rate 250 g/ha) was 90 and the “Barnyardgrass plant response rating” value ([5]; Rate 500 g/ha) was 90. For the same molecule, the “Plant response rating, Barnyardgrass” value ([5]; Rate 62 g/ha) was 40, the “Plant response rating, Barnyardgrass” value ([5]; Rate 125 g/ha) was 80 and the “Flatsedge plant response rating” value ([6]; Rate 250 g/ha) was 100. The “Flatsedge plant response rating” value ([6]; Rate 500 g/ha) was 100, the “Plant response rating, Flatsedge” value ([6]; Rate 62 g/ha) was 100 and the “Plant response rating, Flatsedge” value ([6]; Rate 125 g/ha) was 100. For the same molecule, the “Ducksalad plant response rating” value ([7]; Rate 250 g/ha) was 100, the “Ducksalad plant response rating” value ([7]; Rate 500 g/ha) was 100 and the “Plant response rating, Ducksalad” value ([7]; Rate 62 g/ha) was 0. For the same molecule, the “Plant response rating, Ducksalad” value ([7]; Rate 125 g/ha) was 100, the “Rice plant response rating” value (rice (Oryza saliva) [8]; Rate 500 g/ha) was 30 and the “Plant response rating, Rice” value (rice (Oryza saliva) [8]; Rate 62 g/ha) was 20. The “Plant response rating, Rice” value (rice (Oryza saliva) [8]; Rate 125 g/ha) was 30, the “Plant response rating (0 to 100), Nightshade” value (Nightshade) was 100 and the “Plant response rating (0 to 100), Sunflower” value (Sunflower [9]) was 65. For the same molecule, the “Plant response rating, Sunflower” value (Sunflower [10]) was 35, the “Plant response rating, Corn” value (corn (Zea mays); [24]) was 30 and the “Plant response rating, Corn” value (corn (Zea mays); [25]) was 20. For the same molecule, the “Plant response rating, Lambsquarters” value [11, 24] was 100, the “Plant response rating, Lambsquarters” value [11, 25] was 100 and the “Plant response rating, Barnyardgrass” value [12, 24] was 100. For the same molecule, the “Plant response rating, Barnyardgrass” value [12, 25] was 100, the “Plant response rating, Foxtail, Giant” value [13, 24] was 100 and the “Plant response rating, Foxtail, Giant” value [13, 25] was 100. For the same molecule, the “Plant response rating, Cocklebur” value [14, 24] was 100, the “Plant response rating, Cocklebur” value [14, 25] was 70 and the “Plant response rating, Velvetleaf” value [15, 24] was 100. The “Plant response rating, Velvetleaf” value [15, 25] was 40, the “Plant response rating, Morningglory” value [16, 24] was 100 and the “Plant response rating, Morningglory” value [16, 25] was 80. For the same molecule, the “Plant response rating, Crabgrass” value [17, 24] was 100, the “Plant response rating, Crabgrass” value [17, 25] was 100 and the “Plant response rating, Pigweed” value [18, 24] was 100. The “Plant response rating, Pigweed” value [18, 25] was 100, the “Plant response rating, Rice” value (rice (Oryza saliva) [19]; [24]) was 70 and the “Plant response rating, Rice” value (rice (Oryza saliva) [19]; [25]) was 0. The “Plant response rating, Surinam grass” value [20, 24] was 100 and the “Plant response rating, Surinam grass” value [20, 25] was 100.

With `CCC(CC)c1ccn(C2CCN(c3ccc(Cl)c(OC)c3)C2=O)n1` (stereo not shown) [Compound 118] the “Plant response rating, Cupgrass, Woolly” value [1, 21] was 90, the “Plant response rating, Cupgrass, Woolly” value [1, 22] was 40 and the “Plant response rating (0 to 100), Cupgrass, Woolly” value ([1]; preemergence) was 100. The “Plant response rating, Cupgrass, Woolly” value [1, 23] was 100, the “Plant response rating, Sunflower” value (Sunflower [2]) was 50 and the “Plant response rating, Velvetleaf” value [3, 21] was 100. For the same molecule, the “Plant response rating, Velvetleaf” value [3, 22] was 20, the “Plant response rating (0 to 100), Velvetleaf” value ([3]; preemergence) was 100 and the “Plant response rating, Velvetleaf” value [3, 23] was 100. For the same molecule, the “Plant response rating, Pigweed” value [4, 21] was 100, the “Plant response rating, Pigweed” value [4, 22] was 75 and the “Plant response rating (0 to 100), Pigweed” value ([4]; preemergence) was 100. For the same molecule, the “Plant response rating, Pigweed” value [4, 23] was 100, the “Barnyardgrass plant response rating” value ([5]; Rate 250 g/ha) was 100 and the “Barnyardgrass plant response rating” value ([5]; Rate 500 g/ha) was 100. For the same molecule, the “Plant response rating, Barnyardgrass” value ([5]; Rate 62 g/ha) was 50, the “Plant response rating, Barnyardgrass” value ([5]; Rate 125 g/ha) was 60 and the “Flatsedge plant response rating” value ([6]; Rate 250 g/ha) was 100. The “Flatsedge plant response rating” value ([6]; Rate 500 g/ha) was 100, the “Plant response rating, Flatsedge” value ([6]; Rate 62 g/ha) was 0 and the “Plant response rating, Flatsedge” value ([6]; Rate 125 g/ha) was 100. The “Ducksalad plant response rating” value ([7]; Rate 250 g/ha) was 100, the “Ducksalad plant response rating” value ([7]; Rate 500 g/ha) was 100 and the “Plant response rating, Ducksalad” value ([7]; Rate 125 g/ha) was 60. For the same molecule, the “Rice plant response rating” value (rice (Oryza saliva) [8]; Rate 250 g/ha) was 20, the “Rice plant response rating” value (rice (Oryza saliva) [8]; Rate 500 g/ha) was 30 and the “Plant response rating, Rice” value (rice (Oryza saliva) [8]; Rate 62 g/ha) was 0. The “Plant response rating, Rice” value (rice (Oryza saliva) [8]; Rate 125 g/ha) was 0, the “Plant response rating (0 to 100), Nightshade” value (Nightshade) was 100 and the “Plant response rating (0 to 100), Sunflower” value (Sunflower [9]) was 70. The “Plant response rating, Sunflower” value (Sunflower [10]) was 0, the “Plant response rating, Corn” value (corn (Zea mays); [24]) was 30 and the “Plant response rating, Corn” value (corn (Zea mays); [25]) was 30. For the same molecule, the “Plant response rating, Lambsquarters” value [11, 24] was 100, the “Plant response rating, Lambsquarters” value [11, 25] was 100 and the “Plant response rating, Barnyardgrass” value [12, 24] was 100. The “Plant response rating, Barnyardgrass” value [12, 25] was 100, the “Plant response rating, Foxtail, Giant” value [13, 24] was 100 and the “Plant response rating, Foxtail, Giant” value [13, 25] was 40. For the same molecule, the “Plant response rating, Cocklebur” value [14, 24] was 0, the “Plant response rating, Cocklebur” value [14, 25] was 0 and the “Plant response rating, Velvetleaf” value [15, 24] was 90. The “Plant response rating, Velvetleaf” value [15, 25] was 20, the “Plant response rating, Morningglory” value [16, 24] was 100 and the “Plant response rating, Morningglory” value [16, 25] was 40. For the same molecule, the “Plant response rating, Crabgrass” value [17, 24] was 100, the “Plant response rating, Crabgrass” value [17, 25] was 100 and the “Plant response rating, Pigweed” value [18, 24] was 100. For the same molecule, the “Plant response rating, Pigweed” value [18, 25] was 100, the “Plant response rating, Rice” value (rice (Oryza saliva) [19]; [24]) was 0 and the “Plant response rating, Rice” value (rice (Oryza saliva) [19]; [25]) was 0. The “Plant response rating, Surinam grass” value [20, 24] was 90 and the “Plant response rating, Surinam grass” value [20, 25] was 0.
